Experimental data: US20090082314A1, “Targeting Prodrugs for the Treatment of Gastrointestinal Diseases” (The Provost Fellows and Scholars of the College of the, priority 2007, published 2009)

Tests used:
[1] = neutrality, 39° C.; cited from earlier work
[2] = after 24 h at pH 7 (45° C.); cited from earlier work
[3] = rat intestinal perfusate; cited from earlier work
DSS-induced colitis mice = experiment: Drug efficacy in DSS-induced colitis mice (body weight loss, DAI, colon length); assay type: in vivo, BALB/c mice; conditions: for body weight loss versus vehicle only controls / severity of disease (DAI score) versus vehicle alone / colon shortening versus vehicle alone: 5 mg/Kg oral twice a day, 5% DSS; for body weight loss versus vehicle only controls: FIG. 15, one-way ANOVA with Tukey post test; for severity of disease (DAI score) versus vehicle alone: FIG. 16, one-way ANOVA with Tukey post test; for colon shortening versus vehicle alone: FIG. 17, one-way ANOVA with Tukey post test
Protocol: BALB/c strain mice were from the Bioresources Unit (Trinity College Dublin). Mice were housed in individually ventilated and filtered cages under positive pressure (Tecniplast, Nothants, UK). Food and water were supplied ad libitum. All animal experiments were performed in compliance with Irish Department of Health and Children regulations and approved by the Trinity College Bioresources ethical review board.
All in vivo experiments were performed with six mice per group. […] Colitis scores were analyzed by Mann-Whitney test. P values <0.05 were considered significant. Results on the DIA, C/B and T/B MPO were expressed as means±S.E.
DSS ([…]; MP Biomedicals, OH) was dissolved in the drinking water of the mice. Fresh DSS solution was provided every second day. BALB/c mice were exposed to 5% DSS for six days. The mice were checked every day for morbidity and weight recorded. Induction of colitis was determined by weight loss, fecal blood and, upon autopsy, length of colon. Blood in feces was detected using a Hemdetect occult blood detection kit (Dipro, Austria).
To quantify induction of colitis, a disease activity index (DAI) was determined based on previous studies of DSS-induced colitis (Cooper 1993). DAI was calculated for each mouse daily based on body weight loss, occult blood and stool consistency/diarrhea. A score of […] was given for each parameter, with a maximum DAI score of 12. Score 0, No weight loss, normal stool, no blood; Score 1, 1-3% weight loss; Score 2, 3-6% weight loss, loose stool, blood visible in stool; Score 3, 6-9% weight loss; Score 4, […]. Loose stool was defined as the formation of a stool that readily becomes paste upon handling. Diarrhea was defined as no stool formation. Gross bleeding was defined as fresh blood on fur around the anus with extensive blood in the stool,
At autopsy the length of the colon was measured and a 1 cm section of colon was fixed in 10% formaldehyde-saline. H&E-stained sections were grading based on a scoring system modified from a previous study (Siegmund 2001). Histology scoring was performed in a blinded fashion. A combined score of inflammatory cell infiltration and tissue damage was determined as follows: Cell infiltration: Score 0, Occasional inflammatory cells in the LP; 1, Increased infiltrate in the LP predominantly at the base of crypts; 2, Confluence of inflammatory infiltrate extending into the mucosa; 3, Trans-mural extension of infiltrate. Tissue Damage Score 0, No mucosal damage; 1, Partial (up to 50%) loss of crypts in large areas; 2, Partial to total 50-100% loss of crypts in large areas, epithelium intact; 3, Total loss of crypts in large areas and epithelium lost.
The DSS induced colitis mice weighting about 18-20 grams were allowed 5% DSS water ad libitum and 100 μL of prednisolone and prodrug 2 in 1% solution cremophor and ethanol in water suspension (equivalent to 5 mg of prednisolone per Kg or mouse body weight) was orally administrated, twice a day (every twelve hours) to the colitis mice. Six days after the prednisolone and prodrugs treatments, the mice were sacrificed by cervical dislocation. The distal colon segment and the thymus were removed and washed to remove contents of the colon.
One centimetre of the distal colon segment and the fresh weight of the thymus were measured to obtain the ratios of distal colon weight and thymus weight to body weight (C/B and T/B respectively). The damage of the colon specimens were scored as describe in materials and methods. The distal segments were frozen by liquid nitrogen kept at −80° C. until assayed for myeloperoxidase activity (MPO).
Anti-inflammatory effects were studied by comparison of the distal colon length between healthy mice, untreated mice, prednisolone treated mice and prodrug treated mice. IBD causes shortering of the colon. […]

thymus = experiment: Systemic side effects: thymus weight to body weight ratio in DSS-induced colitis mice; assay type: in vivo, BALB/c mice; conditions: for T/BW ratio (thymus weight:body weight) versus vehicle-treated mice: 5 mg/Kg oral twice a day, 5% DSS, FIG. 18, one-way ANOVA with Tukey post test
Protocol: The DSS induced colitis mice weighting about 18-20 grams were allowed 5% DSS water ad libitum and 100 μL of prednisolone and prodrug 2 in 1% solution cremophor and ethanol in water suspension (equivalent to 5 mg of prednisolone per Kg or mouse body weight) was orally administrated, twice a day (every twelve hours) to the colitis mice. Six days after the prednisolone and prodrugs treatments, the mice were sacrificed by cervical dislocation. The distal colon segment and the thymus were removed and washed to remove contents of the colon. One centimetre of the distal colon segment and the fresh weight of the thymus were measured to obtain the ratios of distal colon weight and thymus weight to body weight (C/B and T/B respectively). The damage of the colon specimens were scored as describe in materials and methods. The distal segments were frozen by liquid nitrogen kept at −80° C. until assayed for myeloperoxidase activity (MPO). Systemic side effects were study by comparison of the thymus weight and body weight ratio (Hideki Yano 2002) between health mice, untreated mice, prednisolone treated mice and prodrug treated mice, due to the fact that an increase on the concentration of steroid in the bloodstream provokes suppression on the activity of the thymus and the consequent reduction of its weight.

[4] = Intramolecular lactamization (cyclization) kinetics of amino prodrugs in aqueous solution, HPLC; assay type: physicochemical; conditions: 37° C., pH not given, read-out: calculated half-life of lactamization (T1/2=0.693/kobs) (converted)
Protocol: Release of steroid in vivo from the prodrugs hinges upon the cyclization of the amino steroid product of azo-reductase activity. The cyclization rates of the amino derivatives of cortisone A and B were monitored in aqueous solution at various pH values and at 37° C. by measuring remaining compound by HPLC along with the evolution of cortisone.
The first order rate constant for disappearance can be obtained from a plot of the natural log of remaining ester versus time. The half-life can be calculated (T1/2=0.693/kobs).

[5] = 5 mg/Kg, Student's t-test, original analysis

| SMILES | body weight loss versus vehicle only controls (DSS-induced colitis mice) | severity of disease (DAI score) versus vehicle alone (DSS-induced colitis mice) | colon shortening versus vehicle alone (DSS-induced colitis mice) | T/BW ratio (thymus weight:body weight) versus vehicle-treated mice (thymus) | half-life [4] [h] | further results |
| --- | --- | --- | --- | --- | --- | --- |
| COC(=O)CCc1ccccc1N [methyl 3-(2-aminophenyl)propionate] |  |  |  |  |  | apparent first-order rate constant of spontaneous cyclization [1]: 0.0002 s⁻¹ |
| C[C@]12CCC(=O)C=C1CC[C@@H]1[C@@H]2[C@@H](O)C[C@@]2(C)[C@H]1CC[C@]2(O)C(=O)COC(=O)CCC(=O)O [hydrocortisone-21-succinate] |  |  |  |  |  | disappearance [2]: less than 5%; first-order rate constant for hydrolysis [3]: 0.003 min⁻¹ |
| CC12C=CC(=O)C=C1CCC1C2C(O)CC2(C)C1CCC2(O)C(=O)COC(=O)CCc1ccccc1/N=N/c1ccc(O)c(C(=O)O)c1 (stereo not drawn) [Mutual Prodrug 2, 5-(2-{2[2-(11,17-dihydroxy-10,13-dimethyl-10,13-dimethyl-3-oxo-6,7,8,9,10,11,12,13,14,15,16,17-dodecahydro-3H-cyclopenta[a]phenanthrene-17-yl)-2-oxo-ethoxycarbonyl]ethyl}-phenylazo}-2-hydroxy-benzoic acid] | weight loss was decreased | significantly reduced | significantly less shortening | not statistically different |  | colon length (DSS-induced colitis mice; [5]): significantly longer colon than the PRED |
| CC12CCC(=O)C=C1CCC1C2C(O)CC2(C)C1CCC2(O)C(=O)COC(=O)CCc1ccccc1N (stereo not drawn) [prodrug B] |  |  |  |  | 1.4 |  |
| C[C@]12C=CC(=O)C=C1CC[C@@H]1[C@@H]2[C@@H](O)C[C@@]2(C)[C@H]1CC[C@]2(O)C(=O)CO [Prednisolone] | weight loss was decreased | significantly reduced | significantly less shortening | significant reduction in T/BW ratio |  | thymus:BW ratio versus Untreated mice (thymus; [5]): significant reduction in thymus:BW ratio |
| CC12CCC(=O)C=C1CCC1C2C(O)CC2(C)C1CCC2(O)C(=O)COC(=O)Cc1ccccc1N (stereo not drawn) [prodrug A] |  |  |  |  | 2.2 |  |
